Test results as given in patent publication US8058425B2, “Purine derivatives as kinase inhibitors” (Eli Lilly and Company, priority 2002, dated 2011).

Assays:
[1] = molecular target: T1, GSK-3β kinase activity in brain cortex tissue (Mus musculus, UniProt Q9WV60); assay: Ex Vivo Brain Assay; assay type: in vivo; details: oral dosing of mice, dose of 20 mg/kg
T1 construct: brain cortex tissue is dissected and homogenized in freshly prepared lysis buffer; from tissue; host or cells: mouse (PDAPP or CD-1) brain cortex, cytosolic homogenate
Method: The ex vivo brain assay assesses the GSK-3β kinase activity of the test compound in brain cortex tissue according to standard protocols (Wang, et al., Anal. Biochem., 220, 397-402 (1994)).
The ex vivo GSK-3β kinase activity of a compound is assayed following oral dosing of 2 to 3 month old PDAPP or CD-1 mice. After a 20 mg/kg, 24-hour dose, followed by an additional three-hour dose, brain cortex tissue is dissected and homogenized in freshly prepared lysis buffer (10 mM K2HPO4 pH 7.2, 1 mM EDTA, 5 mM EGTA, 10 mM MgCl2, 50 mM β-Glycerophosphate, 1 mM Na3VO4, 2 mM DTT, 1 μM Microcystin, COMPLETE protease inhibitor tablet, no detergent). Following a thirty-minute incubation on ice, cortex homogenate samples are centrifuged (100,000 G) for 30 minutes at 4° C. (Ahmed, N. N., et al., Oncogene, 8, 1957 […]). The total protein concentration of homogenate is determined using the BCA method (Pierce). GSK-3β activity in cytosolic homogenate from vehicle- and compound-treated mice is then assayed. The kinase reaction occurs in a 50 μl total volume containing 20 mM MOPS pH 7.4, 25 mM β-glycerol phosphate, 5 mM EGTA, 1 mM NA3VO4, 1 mM DTT, 15 mM MgCl2, 100 μM cold ATP, 200 μM CREB peptide, 10 μL cytosolic cortex brain homogenate, and 5 μCi γ-^33P-ATP. […] The following day, the filter plate is read for ^33P on Top Count (Packard). […]

[2] = tested on: 3T3-L1 adipocytes; assay: Glycogen Synthesis Assay; assay type: cell-based; details: 0.1 μM
Method: The glycogen synthesis assay measures the increase in the production of glycogen both in the absence and in the presence of insulin in the cells. This test is done according to standard protocols. (Berger, J. and Hayes, N. S., Anal. Biochem., 261, 159-163 (1998)). Briefly, 3T3-L1 adipocytes are plated and differentiated in a 96-well plate at 25,000 cells/well. The plate is serum-starved overnight. The serum-starvation media is removed just prior to assay, and the plate is washed with 100 μl/well Krebs-Ringer-Hepes buffer (KRBH). The KRBH is removed and 50 μl of compound (twice the amount of the final concentration) is added to the assay plate. Next, 50 μl of ^14C-labeled glucose is added to the assay plate at 0.1 μCi/well. The plate is then incubated at 37° C. for 2 hours.
The plate is washed with 100 μL/well of PBS, and the cells are lysed with 75 μl/well of 1N NaOH. The plate is heated at 70° C. for 20 minutes. An aliquot (50 μl) of the supernatant is transferred from the assay plate to a Millipore FC filter plate containing 120 μl/well of ice-cold ethanol. The plate is allowed to stand for 2 hours at 4° C. to facilitate precipitation. The ethanol is removed from the filter plate via a vacuum manifold, and the plate is washed with 100 uL/well of ice-cold 70% ethanol. […] The plate was then counted on a Packard Topcount. […]

[3] = tested on: AG04160C FAD lymphoblast cells; assay: Beta-Catenin Protection Assay; assay type: cell-based, human; details: 0.1 μM, 24 hours
Method: The beta-catenin assay is the fold induction over basal beta-catenin and is performed according to standard protocols (Hedgepeth, C. M., Dev. Biol., 185, 82-91 (1997); Chen, G., et al., J. Neurochem., 72, 1327-1330 (1999); Hong, M., et al., J. Biol. Chem., 272, 25326-25332 (1997)).
The human familial Alzheimer's disease (FAD) presenilin-1 AG04160C lymphoblast cell line (Coriell Cell Repository, Camden, N.J.) is maintained as a suspension culture in RPMI 1640 (with L-Glutamine) supplemented with 10% fetal bovine serum and 1% penicillin-streptomycin in an atmosphere of 37° C. and 5% CO2. The AG04160C FAD lymphoblast cells are seeded in T-25 cm^2 flasks at 2.5 to 5.0×10^5 cells/ml in a total volume of 10 ml. […] The total protein concentration in whole cell lysate samples is determined using the BCA method (Pierce). Next, 15 μg of sample is loaded on a 10% Bis-Tris NuPage gel and transferred to a pure nitrocellulose membrane followed by β-catenin immunoblot analysis using a (3-catenin specific antibody (Transduction Labs). The β-catenin accumulation/stability is then quantified following densitometry analysis of protein bands (Kodak Digital Science). Final results are reported as fold induction over basal β-catenin. The compound of Example 121 was tested in this assay and induced a 9.8-fold induction of β-catenin at 0.1 μM.

[4] = tested on: ZDF rats; assay: Glucose Lowering Assay; assay type: in vivo, rat; details: oral gavage, dose of 10 mg/kg
Method: The glucose lowering assay is an in vivo test that measures the effect of the test compound on blood glucose and triglycerides relative to insulin. (ELDAR-FINKLEMAN, H., et al., Expression and Characterization of Glycogen Synthase Kinase-3 Mutants and Their Effect on Glycogen Synthase Activity in Intact Cells, Proc. Nat. Acad. Sci, 93, 10228-10233 (1996)). Briefly, ZDF rats (Charles River, Inc.) at six weeks of age are housed individually with free access to food and water. Rats are dosed with drug once daily by oral gavage, with the compound prepared as a suspension in 1% caboxymethylcellusolve/0.25% Tween 80 (CMC-Tween). Vehicle controls are dosed with CMC-Tween only. The duration of study varied according to the protocol used, with acute dosing studies lasting one day and dose escalation studies lasting seven days. Body weights and food consumption measurements are also performed once a week for seven-day studies. For measurement of blood glucose and triglycerides, blood samples of 600 μl are collected by the tail snip method. […]

[5] = tested on: female Fischer 344 rats; assay: Bone Deposition; assay type: in vivo, rat; set-up: key: +: hypertrophy and proliferation of osteoblasts with production of osteoid observed; −: hypertrophy and proliferation of osteoblasts with production of osteoid not observed at this dose; details: oral gavage daily for 4 days
Method: Vehicle or test compound in vehicle (1% Carboxymethylcellulose sodium, 0.25% Polysorbate 80, and 0.05% Dow Corning Antifoam 1510-US in purified water) is administered orally by gavage to female Fischer 344 rats daily for 4 days with three rats in each dosage group. The rats are delivered for necropsy and sections of formalin-fixed, paraffin-embedded bone are examined microscopically to evaluate osteoblast proliferation and deposition of osteoid.
The compounds in the following tables were tested essentially as described above and hypertrophy and proliferation of osteoblasts along surfaces of medullary trabecula and the cortical periosteum accompanied by production of osteoid was observed.
The compound of Example 365 was tested again essentially as described above at 0, 3, 10, and 30 mg/kg with four rats at each dosage level for 21 days. The vertebra and the femur were submitted for analysis of bone mineral density (BMD), bone mineral content (BMC), and cross sectional area following 21 days of daily dosing with the compound of Example 365.

T1 sequence (Q9WV60 whole entry): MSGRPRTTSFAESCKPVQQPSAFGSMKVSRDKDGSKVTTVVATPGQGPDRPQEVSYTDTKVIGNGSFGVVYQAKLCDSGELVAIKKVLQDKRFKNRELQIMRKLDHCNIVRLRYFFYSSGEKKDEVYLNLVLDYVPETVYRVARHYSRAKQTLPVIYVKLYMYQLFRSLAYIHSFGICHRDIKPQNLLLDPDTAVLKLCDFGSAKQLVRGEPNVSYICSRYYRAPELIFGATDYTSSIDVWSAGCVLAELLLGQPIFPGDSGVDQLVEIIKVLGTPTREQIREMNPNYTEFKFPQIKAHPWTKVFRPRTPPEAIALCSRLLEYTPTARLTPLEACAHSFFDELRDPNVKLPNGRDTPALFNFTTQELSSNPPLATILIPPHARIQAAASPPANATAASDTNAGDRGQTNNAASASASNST

Row | inhibition of kinase activity (ex vivo GSK-3β, brain cortex) [1] [%] | fold induction over basal β-catenin [3] [fold] | Structure (SMILES) | increase of glycogen synthesis ([2]; in the absence of insulin) [fold] | increase of glycogen synthesis ([2]; in the presence of insulin) [fold] | glucose lowering [4] [%] | hypertrophy and proliferation of osteoblasts with production of osteoid ([5]; 50 mg/kg) | hypertrophy and proliferation of osteoblasts with production of osteoid ([5]; 150 mg/kg)
1 | 30 | 9.8 | Cl.O=C1NC(=O)C(c2cc(F)cc3ccoc23)=C1c1cn2c3c(cccc13)CNCC2 [Example 121, 3-(6,7-dihydro-6H-[1,4]diazepino[6,7,1-hi]indol-1-yl)-4-(5-fluorobenzofur-7-yl)-2,5-dioxopyrrole hydrochloride] | 3.7 | 6.4 | 56 |  | 
2 |  |  | O=C1NC(=O)C(c2cnc3ccccn23)=C1c1cn2c3c(cccc13)CN(c1ncccn1)CC2 [Example 560, 3-(6-(pyrimidin-2-yl)-6,7-dihydro-6H-[1,4]diazepino[6,7,1-hi]indol-1-yl)-4-(imidazo[1,2-a]pyridin-3-yl)pyrrole-2,5-dione] |  |  |  | + | +
